Measured values as given in patent US20080299041A1, “HETEROCYCLIC INDENE DERIVATIVES AND THEIR RADIOISOTOPE LABELED COMPOUNDS FOR IMAGING BETA-AMYLOID DEPOSITION” (SEOUL NATIONAL UNIVERSITY INDUSTRY FOUNDATION, priority 2007, published 2008).

Assays:
Aβ1-42 aggregates = Aβ1-42 aggregates (Homo sapiens, UniProt P05067); assay: In vitro competitive binding assay with 3′-[^125I]I-BTA-1 as radioligand, Aβ1-42 aggregates; conditions: Aβ aggregates 20 nM, 3 h at room temperature, pH 7.2
Experimental: (§1) Affinity to β-amyloid can be measured by incubation with β-amyloid precipitate and count the bound form after separation by centrifugation. Kd or Ki values are obtained either by saturation binding assay or competition assay.
(§2) Aβ1-40 or Aβ1-42 peptides were incubated in phosphate buffer (pH=7.2) overnight to prepare precipitates as reported in literatures, and then aliquoted and stored at −70[…]. (Klunk, W. E.; Wang, Y.; Huang, G-F.; Debnath, M. L.; Holt D. P.; Mathis, C. A. Uncharged thioflavin-T derivatives bind to amyloid-beta protein with high affinity and readily enter the brain. Life Sci. 2001, 69(13), […]; Zhuang, Z.-P.; Kung, M.-P.; Wilson, A.; Lee, C.-W.; Plossl, K.; Hou, C.; Holtzman, D. M.; Kung, H. F.; Structure-activity relationship of imidazo[1,2-a]pyridines as ligands for detecting β-amyloid plaques in the brain. J. Med. Chem. 2003; 46(2), 237-243)
(§3) The binding affinities of benzothiophene derivatives to Aβ aggregates were evaluated by competitive binding assays using 3′-[^125I]I-BTA-1 as a radioligand. […] Nonspecific binding was determined by incubation in the presence of 10 μM thioflavin-T. The reaction mixtures were filtered through Whatman GF/B glass filters and washed twice with 3 mL of 10% ethanol aliquots. Filters were counted using a Nat well counter. Ki values of the benzothiophene derivatives were then calculated from the results and represented on Table 1.

Aβ1-40 aggregates = Aβ1-40 aggregates (Homo sapiens, UniProt P05067); assay: In vitro competitive binding assay with 3′-[^125I]I-BTA-1 as radioligand, Aβ1-40 aggregates; conditions: Aβ aggregates 20 nM, 3 h at room temperature, pH 7.2
Experimental: as §1, §2, §3

[1] = Biodistribution experiment in mice after tail vein injection of ^18F labeled compound; type: in vivo, Male ICR mice
Experimental: The penetration of BBB can be estimated by animal experiment. The radiolabeled compounds are intravenously injected to mice, and then the brains are obtained at 2 min, 30 min, and 60 min. The radioactivities of the brain are expressed as the percentage of injected dose per brain weight (gram).
FIG. 2. Biodistribution graph observed in each organ after injection of 2-(4′-[^18F]fluoromethyl)phenyl-1,3-benzothiazole through the mice tail veins. The mice were sacrificed at 2 min, 30 min and 60 min after injection, respectively, and then organs were taken out. The organs were weighed and their radioactivities were measured. The radioactivity distribution in each organ was calculated as the percentage of injected dose per organ weight (gram).
Male ICR mice (n=4/group, 29.9±1.6 g) were injected with 148 kBq/0.1 mL of 2-(4′-[^18F]fluoromethyl)phenyl-1,3-benzothiazole through the tail vein. These injected mice were sacrificed by decapitation 2, 30 and 60 min post-injection. Blood, muscle, lung, liver, spleen, stomach, intestine, brain, and bone were rapidly separated, weighed and counted using a NaI well counter. Results are expressed as percentages of the injected dose per gram of tissue (% ID/g), and represented in FIG. 2. Brain uptake at […] was 5.62±0.28% ID/g and ratio to 30 min was 3.75±0.97, which represent rapid uptake and wash out to and from normal brain.
A comparative mice biodistribution study using 2-(4′-O-(2′-[^18F]Fluoroethyl)hydroxyphenyl)benzothiophene and 2-(4′-O-(3′-[^18F]Fluoropropyl)hydroxyphenyl) benzothiophene was performed according to the same procedure with above Experiment 2.

Aβ1-40 aggregates, sequence (P05067 672-711 limits assumed): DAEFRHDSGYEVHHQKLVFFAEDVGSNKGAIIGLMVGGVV
Aβ1-42 aggregates, sequence (P05067 672-713 limits assumed): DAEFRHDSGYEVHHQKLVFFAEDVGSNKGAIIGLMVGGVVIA

| Molecule | Ki (Aβ1-42 aggregates) | Ki (Aβ1-40 aggregates) | Blood uptake ([1]; 2 min post-injection) | Bone uptake ([1]; 2 min post-injection) | Brain uptake ([1]; 2 min post-injection) | Fat uptake ([1]; 2 min post-injection) | Heart uptake ([1]; 2 min post-injection) | Intestine uptake ([1]; 2 min post-injection) | Kidney uptake ([1]; 2 min post-injection) | Liver uptake ([1]; 2 min post-injection) | Lung uptake ([1]; 2 min post-injection) | Muscle uptake ([1]; 2 min post-injection) | Spleen uptake ([1]; 2 min post-injection) | Stomach uptake ([1]; 2 min post-injection) | Blood uptake ([1]; 30 min post-injection) | Bone uptake ([1]; 30 min post-injection) | Brain uptake ([1]; 30 min post-injection) | Fat uptake ([1]; 30 min post-injection) | Heart uptake ([1]; 30 min post-injection) | Intestine uptake ([1]; 30 min post-injection) | also measured |
| --- | --- | --- | --- | --- | --- | --- | --- | --- | --- | --- | --- | --- | --- | --- | --- | --- | --- | --- | --- | --- | --- |
| 2-(4′-fluoromethyl)phenyl-1,3-benzothiazole | 28.1 ± 4.44 nM | 26.9 ± 5.04 nM |  |  |  |  |  |  |  |  |  |  |  |  |  |  |  |  |  |  |  |
| [18F]CCOc1ccc(-c2cc3ccccc3s2)cc1 [2-(4′-O-(2′-[^18F]Fluoroethyl)hydroxyphenyl)benzothiophene] |  |  | 3.5 ± 0.2 % ID/g | 2.5 ± 0.2 % ID/g | 5.2 ± 0.4 % ID/g | 0.9 ± 0.3 % ID/g | 8.8 ± 1.0 % ID/g | 2.7 ± 0.2 % ID/g | 11.8 ± 0.9 % ID/g | 9.3 ± 1.5 % ID/g | 9.3 ± 1.1 % ID/g | 2.9 ± 0.3 % ID/g | 4.4 ± 0.8 % ID/g | 2.1 ± 0.7 % ID/g | 3.8 ± 0.4 % ID/g | 3.3 ± 0.2 % ID/g | 5.2 ± 0.5 % ID/g | 2.1 ± 1.0 % ID/g | 3.2 ± 0.2 % ID/g | 7.2 ± 0.6 % ID/g | Kidney uptake ([1]; 30 min post-injection): 4.1 ± 0.7 % ID/g; Liver uptake ([1]; 30 min post-injection): 3.9 ± 0.7 % ID/g; Lung uptake ([1]; 30 min post-injection): 3.4 ± 0.6 % ID/g; Muscle uptake ([1]; 30 min post-injection): 2.7 ± 0.3 % ID/g; Spleen uptake ([1]; 30 min post-injection): 2.7 ± 0.5 % ID/g; Stomach uptake ([1]; 30 min post-injection): 2.5 ± 0.3 % ID/g |
| [18F]CCCOc1ccc(-c2cc3ccccc3s2)cc1 [2-(4′-O-(3′-[^18F]Fluoropropyl)hydroxyphenyl)benzothiophene] |  |  | 3.3 ± 0.5 % ID/g | 2.2 ± 0.2 % ID/g | 3.3 ± 0.2 % ID/g | 0.7 ± 0.1 % ID/g | 11.9 ± 0.6 % ID/g | 2.4 ± 0.2 % ID/g | 13.5 ± 1.2 % ID/g | 17.0 ± 0.6 % ID/g | 10.2 ± 1.4 % ID/g | 3.0 ± 0.2 % ID/g | 4.1 ± 1.2 % ID/g | 1.8 ± 0.5 % ID/g | 1.4 ± 0.1 % ID/g | 10.7 ± 0.6 % ID/g | 4.0 ± 0.4 % ID/g | 1.9 ± 0.4 % ID/g | 1.8 ± 0.3 % ID/g | 5.5 ± 0.4 % ID/g | Kidney uptake ([1]; 30 min post-injection): 4.4 ± 0.4 % ID/g; Liver uptake ([1]; 30 min post-injection): 6.1 ± 0.6 % ID/g; Lung uptake ([1]; 30 min post-injection): 2.2 ± 0.6 % ID/g; Muscle uptake ([1]; 30 min post-injection): 1.6 ± 0.1 % ID/g; Spleen uptake ([1]; 30 min post-injection): 1.5 ± 0.2 % ID/g; Stomach uptake ([1]; 30 min post-injection): 1.0 ± 0.4 % ID/g |
| [18F]Cc1ccc(-c2nc3ccccc3s2)cc1 [2-(4′-[^18F]fluoromethyl)phenyl-1,3-benzothiazole] |  |  |  |  |  |  |  |  |  |  |  |  |  |  |  |  |  |  |  |  | Bone uptake (in words; in vivo defluorination) ([1]; tail vein): High bone uptake; Brain uptake ([1]; tail vein, "at min" post-injection (time figure missing)): 5.62±0.28 % ID/g; Brain uptake ratio to 30 min ([1]; tail vein, early brain uptake / 30 min): 3.75±0.97 |
| FCc1ccc(-c2nc3ccccc3o2)cc1 [Benzoxaxole, 2-(4′-fluoromethyl)phenyl-1,3-benzoxazole] | 59.9 ± 5.03 nM | 75.7 ± 43.2 nM |  |  |  |  |  |  |  |  |  |  |  |  |  |  |  |  |  |  |  |
